From ChEMBL document CHEMBL2203132, “Synthesis and antibiofilm activity of marine natural product-based 4-thiazolidinones derivatives” (2012)
≈ marks a conversion by molar mass, not a printed value.

Key:
Format in all cases: functional
Enterococcus faecalis [1] = test: Antibiofilm activity against Enterococcus faecalis ATCC 29212 biofilms incubated at 37 degC for 16 hrs; details: ATCC 29212, 16 h
Staphylococcus aureus [2] = test: Antibiofilm activity against Staphylococcus aureus ATCC 29213 biofilms incubated at 37 degC for 16 hrs; details: ATCC 29213, 16 h
[3] = tested on: Staphylococcus epidermidis; test: Antibiofilm activity against Staphylococcus epidermidis ATCC 12228 biofilms incubated at 37 degC for 16 hrs; details: ATCC 12228, 16 h
Enterococcus faecalis [4] = test: Antimicrobial activity against Enterococcus faecalis ATCC 29212 using sub-cultures from MIC method grown subsequently on Mueller-Hinton agar plates at 37 degC for 24 hrs; details: ATCC 29212, 24 h
[5] = tested on: Staphylococcus epidermidis; test: Antimicrobial activity against Staphylococcus epidermidis ATCC 12228 using sub-cultures from MIC method grown subsequently on Mueller-Hinton agar plates at 37 degC for 24 hrs; details: ATCC 12228, 24 h
Staphylococcus aureus [6] = test: Bactericidal activity against Staphylococcus aureus ATCC 29213 using sub-cultures from MIC method grown subsequently on Mueller-Hinton agar plates at 37 degC for 24 hrs; details: ATCC 29213, 24 h
[7] = tested on: Staphylococcus epidermidis; test: Antimicrobial activity against Staphylococcus epidermidis ATCC 12228 by broth microdilution method
Enterococcus faecalis [8] = test: Antimicrobial activity against Enterococcus faecalis ATCC 29212 by broth microdilution method
Staphylococcus aureus [9] = test: Antimicrobial activity against Staphylococcus aureus ATCC 29213 by broth microdilution method
Staphylococcus aureus [10] = test: Potency index, ratio of MIC for vancomycin to MIC for compound against Staphylococcus aureus ATCC 29213 biofilms incubated at 37 degC for 16 hrs

Row | SMILES | MIC (Enterococcus faecalis [1]) | MIC (Staphylococcus aureus [2]) | MIC [3] | MBC (Enterococcus faecalis [4]) | MBC [5] | MBC (Staphylococcus aureus [6]) | MIC [7] | MIC (Enterococcus faecalis [8]) | MIC (Staphylococcus aureus [9]) | Ratio (Staphylococcus aureus [10])
1 | Cn1c(C(=O)NN2C(=O)CSC2c2ccccc2)cc(Br)c1Br (stereo not given) | 12.5 µg/mL (≈ 27.2 µM) | 3.12 µg/mL (≈ 6.81 µM) | 12.5 µg/mL (≈ 27.2 µM) | 25 µg/mL (≈ 54.4 µM) | 6.25 µg/mL (≈ 13.6 µM) | 6.25 µg/mL (≈ 13.6 µM) | 3.12 µg/mL (≈ 6.81 µM) | 12.5 µg/mL (≈ 27.2 µM) | 1.56 µg/mL (≈ 3.4 µM) | –
2 | COc1ccc(C2SCC(=O)N2NC(=O)c2cc(Br)c(Br)n2C)cc1 (stereo not given) | 6.25 µg/mL (≈ 12.8 µM) | 0.78 µg/mL (≈ 1.59 µM) | 3.12 µg/mL (≈ 6.39 µM) | 25 µg/mL (≈ 51.1 µM) | 3.12 µg/mL (≈ 6.39 µM) | 6.25 µg/mL (≈ 12.8 µM) | 1.56 µg/mL (≈ 3.19 µM) | 6.25 µg/mL (≈ 12.8 µM) | 0.78 µg/mL (≈ 1.59 µM) | 3
3 | Cn1c(C(=O)NN2C(=O)CSC2c2ccc([N+](=O)[O-])cc2)cc(Br)c1Br (stereo not given) | 12.5 µg/mL (≈ 24.8 µM) | 0.78 µg/mL (≈ 1.55 µM) | 3.12 µg/mL (≈ 6.2 µM) | 25 µg/mL (≈ 49.6 µM) | 6.25 µg/mL (≈ 12.4 µM) | 6.25 µg/mL (≈ 12.4 µM) | 1.56 µg/mL (≈ 3.09 µM) | 12.5 µg/mL (≈ 24.8 µM) | 0.78 µg/mL (≈ 1.55 µM) | 3
4 | COc1ccc(C2SCC(=O)N2NC(=O)c2cc(Br)c(Br)n2C)c(O)c1 (stereo not given) | 12.5 µg/mL (≈ 24.7 µM) | 1.56 µg/mL (≈ 3.09 µM) | 3.12 µg/mL (≈ 6.19 µM) | 25 µg/mL (≈ 49.5 µM) | 3.12 µg/mL (≈ 6.19 µM) | 6.25 µg/mL (≈ 12.4 µM) | 1.56 µg/mL (≈ 3.09 µM) | 12.5 µg/mL (≈ 24.7 µM) | 0.78 µg/mL (≈ 1.54 µM) | 2
5 | COc1ccc(C2SCC(=O)N2NC(=O)c2cc(Br)c(Br)n2C)cc1O (stereo not given) | 12.5 µg/mL (≈ 24.7 µM) | 3.12 µg/mL (≈ 6.19 µM) | 3.12 µg/mL (≈ 6.19 µM) | 12.5 µg/mL (≈ 24.7 µM) | 6.25 µg/mL (≈ 12.4 µM) | 6.25 µg/mL (≈ 12.4 µM) | 1.56 µg/mL (≈ 3.09 µM) | 3.12 µg/mL (≈ 6.19 µM) | 1.56 µg/mL (≈ 3.09 µM) | –
6 | Cn1c(C(=O)NN2C(=O)CSC2c2cc(O)ccc2O)cc(Br)c1Br (stereo not given) | 12.5 µg/mL (≈ 25.4 µM) | 1.56 µg/mL (≈ 3.18 µM) | 3.12 µg/mL (≈ 6.36 µM) | 12.5 µg/mL (≈ 25.4 µM) | 3.12 µg/mL (≈ 6.36 µM) | 3.12 µg/mL (≈ 6.36 µM) | 1.56 µg/mL (≈ 3.18 µM) | 6.25 µg/mL (≈ 12.7 µM) | 0.78 µg/mL (≈ 1.59 µM) | 2
7 | Cn1c(C(=O)NN2C(=O)CSC2c2ccc(F)cc2)cc(Br)c1Br (stereo not given) | 12.5 µg/mL (≈ 26.2 µM) | 1.56 µg/mL (≈ 3.27 µM) | 3.12 µg/mL (≈ 6.55 µM) | 12.5 µg/mL (≈ 26.2 µM) | 3.12 µg/mL (≈ 6.55 µM) | 3.12 µg/mL (≈ 6.55 µM) | 1.56 µg/mL (≈ 3.27 µM) | 3.12 µg/mL (≈ 6.54 µM) | 0.78 µg/mL (≈ 1.63 µM) | 2
8 | Cn1c(C(=O)NN2C(=O)CSC2c2ccc(Cl)cc2)cc(Br)c1Br (stereo not given) | 12.5 µg/mL (≈ 25.3 µM) | 1.56 µg/mL (≈ 3.16 µM) | 3.12 µg/mL (≈ 6.33 µM) | 25 µg/mL (≈ 50.6 µM) | 3.12 µg/mL (≈ 6.33 µM) | 3.12 µg/mL (≈ 6.33 µM) | 1.56 µg/mL (≈ 3.16 µM) | 12.5 µg/mL (≈ 25.3 µM) | 0.78 µg/mL (≈ 1.58 µM) | 2
9 | Cn1c(C(=O)NN2C(=O)CSC2C/C=C/c2ccccc2)cc(Br)c1Br (stereo not given) | 6.25 µg/mL (≈ 12.5 µM) | 6.12 µg/mL (≈ 12.3 µM) | 6.25 µg/mL (≈ 12.5 µM) | 12.5 µg/mL (≈ 25 µM) | 12.5 µg/mL (≈ 25 µM) | 12.5 µg/mL (≈ 25 µM) | 25 µg/mL (≈ 50.1 µM) | 25 µg/mL (≈ 50.1 µM) | 6.25 µg/mL (≈ 12.5 µM) | –
10 | Cn1c(C(=O)NN2C(=O)CCSC2c2ccccc2)cc(Br)c1Br (stereo not given) | 25 µg/mL (≈ 52.8 µM) | 12.5 µg/mL (≈ 26.4 µM) | 12.5 µg/mL (≈ 26.4 µM) | 100 µg/mL (≈ 211 µM) | 12.5 µg/mL (≈ 26.4 µM) | 6.25 µg/mL (≈ 13.2 µM) | 6.25 µg/mL (≈ 13.2 µM) | 50 µg/mL (≈ 106 µM) | 12.5 µg/mL (≈ 26.4 µM) | –
11 | COc1ccc(C2SCCC(=O)N2NC(=O)c2cc(Br)c(Br)n2C)cc1 (stereo not given) | 25 µg/mL (≈ 49.7 µM) | 6.25 µg/mL (≈ 12.4 µM) | 12.5 µg/mL (≈ 24.8 µM) | 100 µg/mL (≈ 199 µM) | 12.5 µg/mL (≈ 24.8 µM) | 6.25 µg/mL (≈ 12.4 µM) | 6.25 µg/mL (≈ 12.4 µM) | 50 µg/mL (≈ 99.4 µM) | 3.12 µg/mL (≈ 6.21 µM) | –
12 | Cn1c(C(=O)NN2C(=O)CCSC2c2ccc([N+](=O)[O-])cc2)cc(Br)c1Br (stereo not given) | 25 µg/mL (≈ 48.2 µM) | 6.25 µg/mL (≈ 12.1 µM) | 12.5 µg/mL (≈ 24.1 µM) | 50 µg/mL (≈ 96.5 µM) | 12.5 µg/mL (≈ 24.1 µM) | 6.25 µg/mL (≈ 12.1 µM) | 6.25 µg/mL (≈ 12.1 µM) | 50 µg/mL (≈ 96.5 µM) | 3.12 µg/mL (≈ 6.03 µM) | –
13 | COc1ccc(C2SCCC(=O)N2NC(=O)c2cc(Br)c(Br)n2C)c(O)c1 (stereo not given) | 25 µg/mL (≈ 48.1 µM) | 6.25 µg/mL (≈ 12 µM) | 12.5 µg/mL (≈ 24.1 µM) | 50 µg/mL (≈ 96.3 µM) | 12.5 µg/mL (≈ 24.1 µM) | 6.25 µg/mL (≈ 12 µM) | 6.25 µg/mL (≈ 12 µM) | 25 µg/mL (≈ 48.1 µM) | 3.12 µg/mL (≈ 6.02 µM) | –
14 | COc1ccc(C2SCCC(=O)N2NC(=O)c2cc(Br)c(Br)n2C)cc1O (stereo not given) | 25 µg/mL (≈ 48.1 µM) | 6.25 µg/mL (≈ 12 µM) | 12.5 µg/mL (≈ 24.1 µM) | 50 µg/mL (≈ 96.3 µM) | 12.5 µg/mL (≈ 24.1 µM) | 6.25 µg/mL (≈ 12 µM) | 6.25 µg/mL (≈ 12 µM) | 25 µg/mL (≈ 48.1 µM) | 3.12 µg/mL (≈ 6.02 µM) | –
15 | Cn1c(C(=O)NN2C(=O)CCSC2c2cc(O)ccc2O)cc(Br)c1Br (stereo not given) | 25 µg/mL (≈ 49.5 µM) | 6.25 µg/mL (≈ 12.4 µM) | 12.5 µg/mL (≈ 24.7 µM) | 50 µg/mL (≈ 99 µM) | 12.5 µg/mL (≈ 24.7 µM) | 12.5 µg/mL (≈ 24.7 µM) | 6.25 µg/mL (≈ 12.4 µM) | 25 µg/mL (≈ 49.5 µM) | 3.12 µg/mL (≈ 6.19 µM) | –
16 | Cn1c(C(=O)NN2C(=O)CCSC2c2ccc(F)cc2)cc(Br)c1Br (stereo not given) | 25 µg/mL (≈ 50.9 µM) | 6.25 µg/mL (≈ 12.7 µM) | 12.5 µg/mL (≈ 25.4 µM) | 50 µg/mL (≈ 102 µM) | 12.5 µg/mL (≈ 25.4 µM) | 12.5 µg/mL (≈ 25.4 µM) | 6.25 µg/mL (≈ 12.7 µM) | 25 µg/mL (≈ 50.9 µM) | 3.12 µg/mL (≈ 6.36 µM) | –
17 | Cn1c(C(=O)NN2C(=O)CCSC2c2ccc(Cl)cc2)cc(Br)c1Br (stereo not given) | 25 µg/mL (≈ 49.2 µM) | 6.25 µg/mL (≈ 12.3 µM) | 12.5 µg/mL (≈ 24.6 µM) | 50 µg/mL (≈ 98.5 µM) | 12.5 µg/mL (≈ 24.6 µM) | 12.5 µg/mL (≈ 24.6 µM) | 6.25 µg/mL (≈ 12.3 µM) | 25 µg/mL (≈ 49.2 µM) | 3.12 µg/mL (≈ 6.16 µM) | –
18 | Cn1c(C(=O)NN2C(=O)CCSC2C/C=C/c2ccccc2)cc(Br)c1Br (stereo not given) | 50 µg/mL (≈ 97.4 µM) | 25 µg/mL (≈ 48.7 µM) | 25 µg/mL (≈ 48.7 µM) | 50 µg/mL (≈ 97.4 µM) | 12.5 µg/mL (≈ 24.4 µM) | 50 µg/mL (≈ 97.4 µM) | 6.25 µg/mL (≈ 12.2 µM) | 25 µg/mL (≈ 48.7 µM) | 12.5 µg/mL (≈ 24.4 µM) | –
19 | CN[C@H](CC(C)C)C(=O)N[C@H]1C(=O)N[C@@H](CC(N)=O)C(=O)N[C@H]2C(=O)N[C@H]3C(=O)N[C@H](C(=O)N[C@H](C(=O)O)c4cc(O)cc(O)c4-c4cc3ccc4O)[C@H](O)c3ccc(c(Cl)c3)Oc3cc2cc(c3O[C@@H]2O[C@H](CO)[C@@H](O)[C@H](O)[C@H]2O[C@H]2C[C@](C)(N)[C@H](O)[C@H](C)O2)Oc2ccc(cc2Cl)[C@H]1O [VANCOMYCIN] | 3.12 µg/mL (≈ 2.16 µM) | 3.12 µg/mL (≈ 2.16 µM) | 3.12 µg/mL (≈ 2.16 µM) | 6.25 µg/mL (≈ 4.31 µM) | 3.12 µg/mL (≈ 2.16 µM) | 3.12 µg/mL (≈ 2.16 µM) | – | 3.12 µg/mL (≈ 2.16 µM) | – | –
